Data as given in BigSolDB 2.1.

SMILES | solubility (mole fraction) (in n-octanol, 298.15 K) | solubility (mole fraction) (in n-octanol, 303.15 K) | solubility (mole fraction) (in n-octanol, 308.15 K) | solubility (mole fraction) (in n-octanol, 313.15 K) | solubility (mole fraction) (in n-octanol, 318.15 K) | solubility (mole fraction) (in water, 298.15 K) | solubility (mole fraction) (in water, 303.15 K) | solubility (mole fraction) (in water, 308.15 K) | solubility (mole fraction) (in water, 313.15 K) | solubility (mole fraction) (in water, 318.15 K)
O=c1cc(-c2ccc(O)cc2)oc2cc(O)cc(O)c12 | 0.00077 | 0.0008 | 0.00084 | 0.00094 | 0.00102 | 7.47e-09 | 1.73e-08 | 2.96e-08 | 5.87e-08 | 1.03e-07
O=c1cc(-c2ccc(O)c(O)c2)oc2cc(O)cc(O)c12 | 0.0002 | 0.00021 | 0.00023 | 0.00025 | 0.00027 | 4.54e-08 | 6.74e-08 | 1.2e-07 | 1.91e-07 | 3.74e-07
O=c1c(O)c(-c2ccc(O)c(O)c2)oc2cc(O)cc(O)c12 | 0.00526 | 0.00608 | 0.00677 | 0.00747 | 0.00823 | 5.29e-09 | 1.02e-08 | 1.61e-08 | 2.34e-08 | 3.78e-08
O=c1c(O)c(-c2ccc(O)cc2)oc2cc(O)cc(O)c12 | 0.00857 | 0.00895 | 0.00965 | 0.0103 | 0.0118 | 4.59e-10 | 1.17e-09 | 2.31e-09 | 4.48e-09 | 7.65e-09
O=c1c(O)c(-c2ccc(O)cc2O)oc2cc(O)cc(O)c12 | 0.00226 | 0.00235 | 0.00251 | 0.00265 | 0.00288 | 6.19e-09 | 2.24e-08 | 3.25e-08 | 4.57e-08 | 9.53e-08
COc1ccc(-c2coc3cc(O)ccc3c2=O)cc1 | 0.00056 | 0.0006 | 0.00065 | 0.00069 | 0.00075 | 7.85e-10 | 3.51e-09 | 6.78e-09 | 1.08e-08 | 1.5e-08
COc1ccc(C2CC(=O)c3c(O)cc(O)cc3O2)cc1O (stereo not given) | 0.00269 | 0.00299 | 0.0033 | 0.00379 | 0.0042 | 5.51e-08 | 1.35e-07 | 2.52e-07 | 4.66e-07 | 7.9e-07
O=C1c2c(O)cc(O)cc2OC(c2ccc(O)c(O)c2)C1O (stereo not given) | 0.0127 | 0.0141 | 0.0157 | 0.0176 | 0.0196 | 2.55e-05 | 3.18e-05 | 4.5e-05 | 6.88e-05 | 8.05e-05
O=c1cc(-c2ccccc2)oc2cc(O)cc(O)c12 | 0.00208 | 0.00218 | 0.00228 | 0.00234 | 0.00247 | 5.95e-10 | 1.24e-09 | 3.63e-09 | 1e-08 | 1.88e-08
O=C1C[C@@H](c2ccc(O)cc2)Oc2cc(O)cc(O)c21 | 0.00903 | 0.00963 | 0.0103 | 0.0109 | 0.0114 | 1.79e-07 | 2.98e-07 | 4.96e-07 | 7.64e-07 | 1.1e-06
